Test results published in PMC3493679 (Hepatology (Baltimore, Md.), 2012).
Read-outs that look alike come from different tables or passages of the source.

Legend:
[1] = target: T1, human Nox4 (Homo sapiens, UniProt Q9NPH5); type: biochemical; settings: read-out: Ki on Nox4; cell free membrane assay
T1 sequence (Q9NPH5 1-578): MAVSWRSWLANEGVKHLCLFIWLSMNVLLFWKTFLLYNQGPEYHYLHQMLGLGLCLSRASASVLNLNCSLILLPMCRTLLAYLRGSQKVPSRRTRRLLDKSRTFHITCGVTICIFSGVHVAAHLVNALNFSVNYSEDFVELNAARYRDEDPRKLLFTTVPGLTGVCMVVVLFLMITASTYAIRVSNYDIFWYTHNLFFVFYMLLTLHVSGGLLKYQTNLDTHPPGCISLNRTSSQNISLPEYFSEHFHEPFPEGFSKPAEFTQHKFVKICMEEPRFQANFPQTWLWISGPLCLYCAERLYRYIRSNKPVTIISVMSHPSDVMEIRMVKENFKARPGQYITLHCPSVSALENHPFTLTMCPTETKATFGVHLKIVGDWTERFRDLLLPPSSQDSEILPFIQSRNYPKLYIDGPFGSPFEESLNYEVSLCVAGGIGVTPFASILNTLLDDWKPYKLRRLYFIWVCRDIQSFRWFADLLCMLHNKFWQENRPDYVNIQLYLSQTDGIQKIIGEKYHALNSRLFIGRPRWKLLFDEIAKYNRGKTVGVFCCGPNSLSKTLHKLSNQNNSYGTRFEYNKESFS
T1 sequence (P13498 2-195 partner limits assumed): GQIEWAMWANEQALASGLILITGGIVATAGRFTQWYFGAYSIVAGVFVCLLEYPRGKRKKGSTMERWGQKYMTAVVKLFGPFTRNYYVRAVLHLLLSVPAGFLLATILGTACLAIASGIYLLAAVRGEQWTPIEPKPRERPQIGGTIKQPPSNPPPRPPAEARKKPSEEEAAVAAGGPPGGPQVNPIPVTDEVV

[2] = target: xanthine oxidase (Homo sapiens, UniProt P47989); assay: xanthine oxidase assay, same ROS read-out as NOX assays; type: biochemical
[3] = target: T2, human Nox1 (Homo sapiens, UniProt Q9Y5S8); type: biochemical
T2 sequence (Q9Y5S8 1-564): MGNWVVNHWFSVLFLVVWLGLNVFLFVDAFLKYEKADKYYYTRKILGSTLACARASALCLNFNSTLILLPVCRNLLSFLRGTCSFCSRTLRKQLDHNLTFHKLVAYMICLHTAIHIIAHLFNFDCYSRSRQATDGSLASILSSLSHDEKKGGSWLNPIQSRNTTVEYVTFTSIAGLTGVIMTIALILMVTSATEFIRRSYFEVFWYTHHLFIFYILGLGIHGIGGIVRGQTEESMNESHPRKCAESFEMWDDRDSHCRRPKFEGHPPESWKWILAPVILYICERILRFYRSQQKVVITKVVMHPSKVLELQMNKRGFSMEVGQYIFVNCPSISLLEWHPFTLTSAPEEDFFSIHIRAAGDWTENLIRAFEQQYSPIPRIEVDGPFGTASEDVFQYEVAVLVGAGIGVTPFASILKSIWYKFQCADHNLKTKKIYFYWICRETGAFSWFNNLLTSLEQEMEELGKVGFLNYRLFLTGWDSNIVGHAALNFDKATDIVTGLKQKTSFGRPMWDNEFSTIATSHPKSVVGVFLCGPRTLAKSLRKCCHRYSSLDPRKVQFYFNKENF
T2 sequence (P13498 2-195 partner limits assumed): T1 sequence (P13498 2-195 partner limits assumed)

[4] = test system: NOX2-driven neutrophil oxidative burst; assay: neutrophil oxidative burst by flow cytometry in human whole blood; type: cell-based; settings: up to 100uM
[5] = test system: CCl4-induced liver fibrosis; assay: CCl4 model of liver fibrosis; type: in vivo, mice
[6] = test system: BDL-induced hepatic fibrosis; assay: bile duct ligation; type: in vivo; settings: WT and SOD1mu mice, 60 mg/kg daily from day 11
[7] = test system: activated HSCs; assay: gene expression in culture-activated primary HSCs; type: cell-based, mouse; settings: 20 μM
[8] = test system: colI-GFP HSCs; assay: collagen promoter-driven GFP expression in HSCs; type: cell-based, mouse; settings: SOD1mu and WT HSCs, Ang II 10^−6 M, 20 μM, 24 hours
[9] = test system: HSCs; assay: ROS generation in DCFDA-loaded HSCs; type: cell-based, mouse; settings: SOD1mu and WT HSCs, Ang II 10^−6 M, 20 μM
[10] = test system: Rac1; assay: Rac1 G-LISA activation assay in HSCs; type: cell-based, mouse; settings: WT and SOD1mu HSCs, 20 μM, 24 hours
[11] = test system: HSCs; assay: gene expression in Ang II stimulated HSCs; type: cell-based, mouse; settings: Ang II 10^−6 M, 20 μM, 24 hours
[12] = test system: 170 different proteins; assay: in vitro off-target pharmacological profile; settings: tested at 10 μM
[13] = CCl4 treated SOD1mu mice, 60 mg/kg daily
[14] = SOD1mu and WT mice, 60 mg/kg daily

Sequence of xanthine oxidase (P47989 whole entry, species assumed): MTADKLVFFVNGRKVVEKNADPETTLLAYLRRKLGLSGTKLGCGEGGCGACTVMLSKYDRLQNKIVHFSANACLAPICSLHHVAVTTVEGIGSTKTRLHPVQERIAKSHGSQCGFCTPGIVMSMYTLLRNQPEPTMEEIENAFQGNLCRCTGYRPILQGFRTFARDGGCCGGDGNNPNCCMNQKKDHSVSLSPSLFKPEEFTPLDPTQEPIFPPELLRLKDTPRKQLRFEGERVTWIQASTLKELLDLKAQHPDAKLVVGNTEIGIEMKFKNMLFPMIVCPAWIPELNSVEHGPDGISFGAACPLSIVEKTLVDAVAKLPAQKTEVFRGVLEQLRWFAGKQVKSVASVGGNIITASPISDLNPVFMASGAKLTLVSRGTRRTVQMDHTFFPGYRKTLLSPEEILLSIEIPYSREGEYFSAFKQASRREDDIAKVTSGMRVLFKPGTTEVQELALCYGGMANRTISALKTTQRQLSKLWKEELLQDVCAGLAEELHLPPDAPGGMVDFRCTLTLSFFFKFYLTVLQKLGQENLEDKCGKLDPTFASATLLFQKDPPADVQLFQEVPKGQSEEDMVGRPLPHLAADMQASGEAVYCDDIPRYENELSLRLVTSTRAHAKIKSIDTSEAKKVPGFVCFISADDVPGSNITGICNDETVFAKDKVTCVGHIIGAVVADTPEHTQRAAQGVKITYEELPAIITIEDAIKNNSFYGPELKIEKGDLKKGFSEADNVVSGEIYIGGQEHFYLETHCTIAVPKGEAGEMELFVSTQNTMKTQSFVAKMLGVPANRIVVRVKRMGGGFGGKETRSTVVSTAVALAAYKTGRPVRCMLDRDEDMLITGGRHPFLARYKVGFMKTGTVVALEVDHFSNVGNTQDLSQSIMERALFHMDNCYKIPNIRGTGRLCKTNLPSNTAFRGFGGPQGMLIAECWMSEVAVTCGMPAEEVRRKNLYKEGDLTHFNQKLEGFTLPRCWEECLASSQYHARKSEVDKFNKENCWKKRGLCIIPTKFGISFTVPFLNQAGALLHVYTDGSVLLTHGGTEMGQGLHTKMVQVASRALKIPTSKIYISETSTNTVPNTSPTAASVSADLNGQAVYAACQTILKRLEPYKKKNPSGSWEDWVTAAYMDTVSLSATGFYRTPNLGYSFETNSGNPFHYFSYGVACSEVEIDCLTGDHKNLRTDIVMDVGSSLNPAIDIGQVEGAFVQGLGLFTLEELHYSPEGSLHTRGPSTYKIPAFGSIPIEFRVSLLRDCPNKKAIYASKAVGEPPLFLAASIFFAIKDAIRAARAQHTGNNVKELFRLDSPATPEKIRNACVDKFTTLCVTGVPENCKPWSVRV

## c1ccc([I+]c2ccccc2)cc1 [DPI, Diphenyliodonium, reference compound]
[1]
  Ki: 70 ± 10 nM
[2]; read-out: Ki on xanthine oxidase
  Ki: 50 nM

## CN(C)c1cccc(-c2c3c(=O)n(-c4ccccc4Cl)[nH]c3cc(=O)n2C)c1 [GKT137831, 2-(2-chlorophenyl)-4-[3-(dimethylamino)phenyl]-5-methyl-1H-pyrazolo[4,3-c]pyridine-3,6(2H,5H)-dione]
[3]
  Ki: 110 ± 30 nM
[2]
  Ki: > 100000 nM
  scavenging of superoxide (O2•−): inability to scavenge superoxide
[4]
  inhibition of neutrophil oxidative burst: did not significantly inhibit
[5]; CCl4 treated SOD1mu and WT mice, 60 mg/kg daily
  liver inflammation and injury: inhibited to similar lower levels
[5]; [13]
  hepatic 4-HNE levels: suppressed
  hepatic MDA levels (TBARS): suppressed
  hepatic mRNA expression of TNF-α: suppressed
  serum ALT levels: reduced
[5]; CCl4 treated mice, 60 mg/kg daily
  macrophage infiltration and activation (F4/80, CD68): prevented macrophage infiltration and activation
[5]; [14]
  hepatic collagen deposition (Sirius red staining): reduced
  hepatic mRNAs of collagen α1(I), TIMP-1 and TGF-β: reduced the induction of those genes to the same lower levels
[5]; SOD1mu and WT mice, 60 mg/kg intragastric daily, last half of CCl4 treatment
  CCl4-induced liver fibrosis: attenuated
[5]; SOD1mu mice, immunohistochemistry and immunoblotting, 60 mg/kg daily
  hepatic α-SMA expression: markedly decreased
[6]
  BDL-induced hepatic fibrosis: decreased
[7]; activated SOD1mu HSCs
  NOX4 and NOX1 mRNA expression: suppressed
[7]; activated SOD1mu and WT HSCs
  collagen α1(I) and Acta2 mRNA expression: reduced
[8]
  Ang II induced GFP fluorescence (collagen α1(I) promoter): suppressed
[9]
  Ang II induced ROS generation: suppressed
[10]
  Rac1 activity after Ang II stimulation: no effect
[11]; SOD1mut and WT HSCs
  Ang II induced NOX1 and NOX4 mRNA expression: suppressed
[11]; WT and SOD1mu HSCs
  Ang II induced collagen α1(I) and TIMP-1 mRNA expression: blocked
[12]
  inhibition of off-target proteins: did not show any significant inhibition of any tested target protein
